Test results as given in patent US20150005379A1, “[…] METHOD” (PeroxyChem LLC, priority 2013, published 2015).

Test system: fecal coliform
Test: Fecal coliform count of wastewater at the contact chamber exit after peracetic acid dosing
Assay type: cell-based
Details: post-sand filter wastewater, 60 min average contact time
Protocol: Wastewater was diverted post-sand filter treatment at a wastewater treatment plant into a rectangular weir disinfectant contact chamber. The flow rate of wastewater through the contact chamber was set at seven gallons per minute; the average contact time in the contact chamber was 60 minutes.
VigorOx® WWT peracetic acid (FMC Corporation; 15% peracetic acid, 23% hydrogen peroxide by weight) was dosed into the wastewater through Control Corporation lab grade pumps. In Comparative Experiment A, the PAA was introduced just prior to the wastewater's entrance into the contact chamber at a rate of 6.1 ppm. In Example 1, PAA was introduced just prior to the wastewater's entrance into the contact chamber at a rate of 1.5 ppm; and additionally at a point 50 minutes after the wastewater's entry into the contact chamber at a rate of 4.5 ppm. The fecal coliform count of the wastewater was measured at the point the wastewater exited from the contact chamber.

CC(=O)OO [PAA, peracetic acid]
samples tested with no-detectable readings of coliform bacteria (Comparative Experiment A: PAA added at a sole point just prior to entrance into contact chamber, 6.1 ppm): about 35% | samples tested with no-detectable readings of coliform bacteria (Example 1: PAA added at two points, 1.5 ppm just prior to entrance and 4.5 ppm at 50 minutes after entry): about 50%
